The values below come from ChEMBL document CHEMBL1150121, “A new cytotoxic calyculinamide derivative, geometricin A, from the Australian sponge Luffariella geometrica” (2002).

A word on the GI50: it is the concentration that inhibits growth by half. One may read the TGI as the concentration at which net growth stops. A lower TGI goes with greater sensitivity of the cells.

The structures appear in SMILES notation. ≈ marks a conversion by molar mass, not a printed value.

Common to all, as to assay type: functional
A short description of assay [1]: Growth inhibition of human HM02 cells.
For another assay, the system named is [Chlorella] fusca. The experiment in a line: Antialgal activity against Chlorella fusca at 50 ug/disk by agar diffusion test. The conditions noted are these: Scenedesmus fuscus; read-out: IZ. In general terms: A growth-free zone around the sample is the usual read-out of agar diffusion tests.
The test system of a further assay is HepG2. The experiment in a line: Growth inhibition of human HepG2 cells.
The subject of a further assay is Microbotryum violaceum. The assay is described as follows: Antifungal activity against Microbotryum violaceum at 50 ug/disk by agar diffusion test. The conditions noted are these: read-out: IZ.

As to `COC(CC(O)C(C)C(O)C(C)/C=C(C)/C(C)=C/CC/C(C)=C\C(N)=O)[C@H]1O[C@]2(C[C@H](O)[C@H](C)[C@H](C/C=C/c3coc(C)n3)O2)C(C)(C)[C@H]1OP(=O)(O)O` (stereo partly specified) [GEOMETRICIN A], the GI50 is 1.7 µg/mL (≈ 2.17 µM) in assay [1] and 2.8 µg/mL (≈ 3.58 µM) in the assay with HepG2. Further, the TGI in assay [1] is 3.2 µg/mL (≈ 4.09 µM); in the assay on HepG2 it was 8.8 µg/mL (≈ 11.2 µM). In addition, the zone of inhibition at 50 µg/disc (in assay [Chlorella] fusca; with Microbotryum violaceum) was 5 mm in each case.
